Reference: PubChem BioAssay AID330 (DTP/NCI, 2004)
Values joined by “and” are separate entries in the source; they are usually repeats but may differ in a detail not shown here. Equal values may be shown once. Toxic doses and inconclusive results are not listed.

System: P388 leukemia ip, CD2F1 mice, survival T/C
Experiment: NCI In Vivo Anticancer Drug Screen. Data for tumor model P388 Leukemia (intraperitoneal) in CD2F1 (CDF1) mice
Conditions: endpoint: median survival time, higher = longer survival
In short: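 Mice carrying the transplanted tumor received test compound or vehicle. Survival was recorded in each group, and the value is the treated-group measurement divided by that of the vehicle-treated control group.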

[1] = dose: 100.0 mg/kg/injection, schedule: Q04DX002 (ip), vehicle: saline with Tween-80
[2] = dose: 60.0 mg/kg/injection, schedule: Q01DX005 (ip), vehicle: saline with Tween-80
[3] = dose: 120.0 mg/kg/injection, schedule: Q01DX005 (ip), vehicle: saline with Tween-80
[4] = dose: 50.0 mg/kg/injection, schedule: Q01DX005 (ip), vehicle: saline with Tween-80
[5] = dose: 100.0 mg/kg/injection, schedule: Q01DX005 (ip), vehicle: saline with Tween-80
[6] = dose: 200.0 mg/kg/injection, schedule: Q01DX005 (ip), vehicle: saline with Tween-80
[7] = dose: 200.0 mg/kg/injection, schedule: Q01DX009 (ip), vehicle: saline with Tween-80
[8] = dose: 100.0 mg/kg/injection, schedule: Q01DX009 (ip), vehicle: saline
[9] = dose: 50.0 mg/kg/injection, schedule: Q01DX005 (ip), vehicle: saline
[10] = dose: 240.0 mg/kg/injection, schedule: Q01DX005 (ip), vehicle: saline with Tween-80
[11] = dose: 50.0 mg/kg/injection, schedule: Q01DX009 (ip), vehicle: saline
[12] = dose: 200.0 mg/kg/injection, schedule: Q01DX009 (ip), vehicle: saline
[13] = dose: 100.0 mg/kg/injection, schedule: Q04DX003 (ip), vehicle: saline
[14] = dose: 200.0 mg/kg/injection, schedule: Q04DX003 (ip), vehicle: saline
[15] = dose: 400.0 mg/kg/injection, schedule: Q04DX003 (ip), vehicle: saline
[16] = dose: 50.0 mg/kg/injection, schedule: Q01DX009 (ip), vehicle: Klucel (hydroxypropylcellulose) (HPC)
[17] = dose: 100.0 mg/kg/injection, schedule: Q01DX009 (ip), vehicle: Klucel (hydroxypropylcellulose) (HPC)
[18] = dose: 25.0 mg/kg/injection, schedule: Q01DX005 (ip), vehicle: saline
[19] = dose: 100.0 mg/kg/injection, schedule: Q01DX005 (ip), vehicle: saline
[20] = dose: 200.0 mg/kg/injection, schedule: Q01DX005 (ip), vehicle: saline
[21] = dose: 200.0 mg/kg/injection, schedule: Q01DX009 (ip), vehicle: Klucel (hydroxypropylcellulose) (HPC)
[22] = dose: 50.0 mg/kg/injection, schedule: Q01DX009 (ip), vehicle: saline with Tween-80
[23] = dose: 100.0 mg/kg/injection, schedule: Q01DX009 (ip), vehicle: saline with Tween-80

Structure (SMILES): CCCOc1cccc2c1C(=O)c1c(O)c3c(c(O)c1C2=O)C[C@@](O)(C(C)=O)C[C@@H]3OC1CC(N)C(O)C(C)O1 (stereo not given in full)
- T/C (dose: 3.13 mg/kg/injection, schedule: Q04DX003 (ip), vehicle: water): 105 % of control
- T/C (dose: 6.25 mg/kg/injection, schedule: Q04DX003 (ip), vehicle: water): 121 % of control
- T/C (dose: 12.5 mg/kg/injection, schedule: Q04DX003 (ip), vehicle: water): 121 % of control

Structure (SMILES): CN1c2ccccc2SC12C(=S)N(c1ccccc1)C(=S)N2c1ccccc1 (stereo not given)
- T/C [1]: 98 % of control
- T/C (dose: 200.0 mg/kg/injection, schedule: Q04DX002 (ip), vehicle: saline with Tween-80): 90 % of control
- T/C (dose: 400.0 mg/kg/injection, schedule: Q04DX002 (ip), vehicle: saline with Tween-80): 86 % of control

Structure (SMILES): C(=C\c1cc(-c2cc(/C=C/c3ccccc3)[nH]n2)n[nH]1)/c1ccccc1
- T/C [2]: 100 % of control
- T/C [3]: 99 % of control

Structure (SMILES): Nc1nnnn1CCCl
- T/C [4]: 94 % of control
- T/C [5]: 103 % of control
- T/C [6]: 106 % of control

Structure (SMILES): C/C(=N\NC(N)=Nc1ccccc1)c1ccc(Cl)c(Cl)c1
- T/C (dose: 25.0 mg/kg/injection, schedule: Q04DX002 (ip), vehicle: saline with Tween-80): 100 % of control
- T/C (dose: 50.0 mg/kg/injection, schedule: Q04DX002 (ip), vehicle: saline with Tween-80): 101 % of control
- T/C [1]: 110 % of control

Structure (SMILES): ClC(Cl)(Cl)SSC(=Nc1ccccc1)SSC(Cl)(Cl)Cl
- T/C [7]: 155 % of control

Structure (SMILES): C=c1[nH]c(=O)c(=C)[nH]c1=O
- T/C (dose: 12.5 mg/kg/injection, schedule: Q01DX009 (ip), vehicle: other): 94 % of control
- T/C (dose: 25.0 mg/kg/injection, schedule: Q01DX009 (ip), vehicle: other): 90 % of control
- T/C (dose: 50.0 mg/kg/injection, schedule: Q01DX009 (ip), vehicle: other): 99 % of control
- T/C (dose: 100.0 mg/kg/injection, schedule: Q01DX009 (ip), vehicle: other): 106 % of control

Structure (SMILES): CCCCCCCCCCCCCCCc1c(NC(C)(CC)[P+](=O)O)c(=O)n(C)n1C (stereo not given)
- T/C (dose: 6.25 mg/kg/injection, schedule: Q01DX009 (ip), vehicle: saline): 112 % of control
- T/C (dose: 12.5 mg/kg/injection, schedule: Q01DX009 (ip), vehicle: saline): 100 % of control
- T/C [8]: 101 % of control

Structure (SMILES): CN1C2CCC1C(Br)C=C2c1ccccc1 (stereo not given)
- T/C [9]: 109 % of control

Structure (SMILES): O=C(Nc1ccccc1)/C(Cl)=C1/Sc2ccccc2NC1=O
- T/C [2]: 104 % of control
- T/C [3]: 107 % of control
- T/C [10]: 99 % of control

Structure (SMILES): C=C(C)c1ccc([Si](C)(C)C)cc1
- T/C [11]: 104 % of control
- T/C [8]: 101 % of control
- T/C [12]: 109 % of control

Structure (SMILES): CC(C)(C)C(=O)Nc1ccccc1-c1ccccc1
- T/C [13]: 93 % of control
- T/C [14]: 92 % of control
- T/C [15]: 94 % of control

Structure (SMILES): O=C1OCC/C1=C\N1CCCCC1
- T/C (dose: 60.0 mg/kg/injection, schedule: Q01DX005 (ip), vehicle: saline): 102 % of control
- T/C (dose: 120.0 mg/kg/injection, schedule: Q01DX005 (ip), vehicle: saline): 100 % of control
- T/C (dose: 240.0 mg/kg/injection, schedule: Q01DX005 (ip), vehicle: saline): 106 % of control

Structure (SMILES): COc1ccccc1-n1s/c(=N\OC(=O)c2sc3ccccc3c2Cl)sc1=S
- T/C [11]: 93 % of control
- T/C [8]: 94 % of control
- T/C [12]: 94 % of control

Structure (SMILES): O=c1ccc2cc3c(c(O)c2o1)OC=CC3
- T/C [16]: 98 % of control
- T/C [17]: 94 % of control

Structure (SMILES): CN(C)c1ccc(C(Cl)[O][Sn]([Cl])([c]2ccccc2)[c]2ccccc2)cc1.[CH3][Sn]([CH3])([Cl])[Cl] (stereo not given)
- T/C (dose: 1.56 mg/kg/injection, schedule: Q01DX005 (ip), vehicle: saline with Tween-80): 112 % of control
- T/C (dose: 3.12 mg/kg/injection, schedule: Q01DX005 (ip), vehicle: saline with Tween-80): 113 % of control and 119 % of control
- T/C (dose: 6.25 mg/kg/injection, schedule: Q01DX005 (ip), vehicle: saline with Tween-80): 109 % of control

Structure (SMILES): c1ccc([Se][Se]c2ccccn2)nc1
- T/C (dose: 6.25 mg/kg/injection, schedule: Q01DX005 (ip), vehicle: Klucel (hydroxypropylcellulose) (HPC)): 101 % of control
- T/C (dose: 12.5 mg/kg/injection, schedule: Q01DX005 (ip), vehicle: Klucel (hydroxypropylcellulose) (HPC)): 103 % of control
- T/C (dose: 25.0 mg/kg/injection, schedule: Q01DX005 (ip), vehicle: Klucel (hydroxypropylcellulose) (HPC)): 101 % of control

Structure (SMILES): O=C1NC(=O)C2(O)NC(=O)NC2(O)N1 (stereo not given)
- T/C [18]: 100 % of control
- T/C [9]: 106 % of control
- T/C [19]: 101 % of control
- T/C [20]: 116 % of control
- T/C (dose: 400.0 mg/kg/injection, schedule: Q01DX005 (ip), vehicle: saline): 116 % of control

Structure (SMILES): CCOC(=O)c1ccc(NC(=S)Nc2ccccc2C(F)(F)F)cc1
- T/C [16]: 100 % of control
- T/C [17]: 100 % of control
- T/C [21]: 92 % of control

Structure (SMILES): COc1ccc(-c2cc(-c3ccccc3)nc(-c3cccc([N+](=O)[O-])c3)c2)cc1
- T/C [16]: 100 % of control
- T/C [17]: 124 % of control
- T/C [21]: 97 % of control

Structure (SMILES): CC1(C)C2CCC(O2)C(C)(C)C2CCC(O2)C(C)(C)C2CCC(O2)C(C)(C)C2CCC1O2
- T/C [4]: 102 % of control
- T/C [5]: 100 % of control
- T/C [6]: 95 % of control

Structure (SMILES): Nn1cnc2c(ncn2C2OC(CO)C(O)C2O)c1=O (stereo not given)
- T/C (dose: 60.0 mg/kg/injection, schedule: Q01DX005 (ip), vehicle: Klucel (hydroxypropylcellulose) (HPC)): 98 % of control
- T/C (dose: 120.0 mg/kg/injection, schedule: Q01DX005 (ip), vehicle: Klucel (hydroxypropylcellulose) (HPC)): 99 % of control
- T/C (dose: 240.0 mg/kg/injection, schedule: Q01DX005 (ip), vehicle: Klucel (hydroxypropylcellulose) (HPC)): 97 % of control

Structure (SMILES): CN(C)CCOC(c1ccccc1)c1ccccc1
- T/C (dose: 25.0 mg/kg/injection, schedule: Q04DX003 (ip), vehicle: saline): 100 % of control
- T/C (dose: 50.0 mg/kg/injection, schedule: Q04DX003 (ip), vehicle: saline): 100 % of control
- T/C [13]: 108 % of control

Structure (SMILES): COC1OC(CO)C(O)C(O)C1O (stereo not given)
- T/C [11]: 100 % of control
- T/C [8]: 94 % of control and 104 % of control
- T/C [13]: 109 % of control
- T/C [12]: 101 % of control and 100 % of control
- T/C [14]: 95 % of control
- T/C (dose: 400.0 mg/kg/injection, schedule: Q01DX009 (ip), vehicle: saline): 106 % of control and 101 % of control
- T/C [15]: 95 % of control

Structure (SMILES): O=S1(=O)CCC(N2CCCCC2)C1 (stereo not given)
- T/C (dose: 25.0 mg/kg/injection, schedule: Q01DX009 (ip), vehicle: saline): 102 % of control
- T/C [11]: 94 % of control
- T/C [8]: 104 % of control
- T/C [12]: 98 % of control

Structure (SMILES): CC(=O)Nc1cc2cc(NC=C(C#N)C#N)ccc2oc1=O
- T/C (dose: 60.0 mg/kg/injection, schedule: Q01DX005 (ip), vehicle: Klucel + Tween-80): 96 % of control
- T/C (dose: 120.0 mg/kg/injection, schedule: Q01DX005 (ip), vehicle: Klucel + Tween-80): 92 % of control

Structure (SMILES): OCc1cc2ccc3ccccc3c2[nH]1
- T/C [2]: 96 % of control
- T/C [3]: 89 % of control
- T/C [10]: 91 % of control

Structure (SMILES): CC(C)[C@@]12O[C@@H]1CC13OC1[C@@H](O)CC[C@@]32O (stereo not given in full)
- T/C [9]: 105 % of control
- T/C [19]: 99 % of control
- T/C [20]: 103 % of control

Structure (SMILES): Cc1c2c(c(C)c3c1C(=O)c1cc4c(cc1C3=O)OCO4)OC(C)(C)O2
- T/C [2]: 89 % of control
- T/C [3]: 94 % of control
- T/C [10]: 100 % of control

Structure (SMILES): CC(C)Nc1nc(N)nc(N)n1
- T/C [22]: 100 % of control
- T/C [23]: 91 % of control
- T/C [7]: 96 % of control

Structure (SMILES): CN1CC(C(N)=O)=CC(C(N)=O)C1 (stereo not given)
- T/C [18]: 97 % of control
- T/C [9]: 96 % of control
- T/C [19]: 113 % of control
- T/C [20]: 111 % of control

Structure (SMILES): CCS/C(C#N)=C(/OC)c1ccccc1Cl
- T/C [22]: 89 % of control
- T/C [23]: 94 % of control

Structure (SMILES): COc1cc(O)c2c(c1)C(=O)C1=C(C2=O)[C@@H](C)OC(C)C1 (stereo not given in full)
- T/C (dose: 15.0 mg/kg/injection, schedule: Q01DX005 (ip), vehicle: saline with Tween-80): 94 % of control
- T/C (dose: 30.0 mg/kg/injection, schedule: Q01DX005 (ip), vehicle: saline with Tween-80): 96 % of control
- T/C [2]: 88 % of control and 94 % of control
